Assay results from ChEMBL document CHEMBL6120984, “Novel potent SOS1 inhibitors containing a tricyclic quinazoline scaffold: A joint view of experiments and simulations” (Eur J Med Chem, 2025).
The source made the active and inactive calls. No cut-off for these calls is given here.

Legend:
[1] = biological target: SOS1-KRAS (Homo sapiens, UniProt Q07889); test: Inhibition of 6His peptide-tagged recombinant human SOS1 (564 to 1049 residues)/N-terminal GST-tagged human recombinant KRAS G12C mutant protein-protein interaction incubated for 1 hrs by HTRF assay; assay type: protein-complex assay
Sequence of SOS1-KRAS (Q07889 whole entry, looked up, stated change not applied, the tested form may be a part): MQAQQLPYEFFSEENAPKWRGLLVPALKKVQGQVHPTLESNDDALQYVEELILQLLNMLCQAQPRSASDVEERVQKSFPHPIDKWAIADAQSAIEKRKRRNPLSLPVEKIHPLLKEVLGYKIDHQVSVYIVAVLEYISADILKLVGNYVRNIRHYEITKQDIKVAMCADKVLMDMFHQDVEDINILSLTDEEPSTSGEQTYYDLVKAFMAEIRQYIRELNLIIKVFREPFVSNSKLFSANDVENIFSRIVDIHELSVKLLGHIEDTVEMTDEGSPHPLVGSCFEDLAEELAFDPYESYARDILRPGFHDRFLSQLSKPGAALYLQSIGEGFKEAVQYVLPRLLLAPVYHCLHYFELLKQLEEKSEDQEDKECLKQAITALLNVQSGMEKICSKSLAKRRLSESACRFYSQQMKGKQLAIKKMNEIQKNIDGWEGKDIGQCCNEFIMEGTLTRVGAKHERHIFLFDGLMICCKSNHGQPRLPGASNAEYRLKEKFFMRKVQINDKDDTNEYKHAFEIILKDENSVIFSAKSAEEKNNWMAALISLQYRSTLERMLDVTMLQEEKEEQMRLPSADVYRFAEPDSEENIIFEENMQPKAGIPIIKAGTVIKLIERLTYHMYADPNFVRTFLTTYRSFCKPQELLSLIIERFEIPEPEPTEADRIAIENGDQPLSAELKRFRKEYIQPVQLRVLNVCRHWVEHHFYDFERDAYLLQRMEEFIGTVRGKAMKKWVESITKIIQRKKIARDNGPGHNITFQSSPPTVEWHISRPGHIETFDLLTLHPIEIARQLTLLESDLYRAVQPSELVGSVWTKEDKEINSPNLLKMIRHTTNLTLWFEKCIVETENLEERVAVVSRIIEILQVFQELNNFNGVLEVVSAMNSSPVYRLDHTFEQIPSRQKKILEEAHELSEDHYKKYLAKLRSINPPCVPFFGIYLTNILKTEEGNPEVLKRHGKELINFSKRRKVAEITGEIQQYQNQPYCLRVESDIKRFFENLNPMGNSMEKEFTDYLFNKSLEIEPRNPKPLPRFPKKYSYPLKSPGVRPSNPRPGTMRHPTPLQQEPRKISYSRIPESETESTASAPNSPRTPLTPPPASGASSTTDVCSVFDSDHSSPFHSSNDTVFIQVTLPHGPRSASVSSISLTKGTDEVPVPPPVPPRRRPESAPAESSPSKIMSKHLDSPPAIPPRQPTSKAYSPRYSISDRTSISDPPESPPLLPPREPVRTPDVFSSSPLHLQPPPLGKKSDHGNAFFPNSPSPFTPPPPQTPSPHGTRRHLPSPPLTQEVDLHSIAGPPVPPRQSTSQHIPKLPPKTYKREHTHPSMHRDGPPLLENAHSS

[2] = tested on: MIA PaCa-2; test: Antiproliferative activity against human MIA PaCa-2 cells expressing KRAS G12C mutant assessed as inhibition of cell proliferation incubated for 14 days in 3-D culture condition; assay type: functional, cell-based; conditions: MIA PaCa-2, 336 h
[3] = tested on: MIA PaCa-2; test: Antiproliferative activity against human MIA PaCa-2 cells expressing KRAS G12C mutant assessed as maximal inhibition of cell proliferation incubated for 14 days in 3-D culture condition relative to control; assay type: functional; conditions: time 14 day
[4] = Inhibition of ERK phosphorylation in human DLD-1 cells expressing KRAS G13D mutant incubated for 60 mins by HTRF assay; assay type: cell-based; conditions: DLD-1, 1 h
[5] = MRT in male CD-1 mouse at 10 mg/kg, po measured after 24 hrs by LC-MS/MS analysis; assay type: ADME, organism-based; conditions: in vivo
[6] = Cmax in male CD-1 mouse at 10 mg/kg, po measured after 24 hrs by LC-MS/MS analysis; assay type: ADME, organism-based; conditions: in vivo
[7] = Tmax in male CD-1 mouse at 10 mg/kg, po measured after 24 hrs by LC-MS/MS analysis; assay type: ADME, organism-based; conditions: in vivo
[8] = Half-life in male CD-1 mouse at 10 mg/kg, po measured after 24 hrs by LC-MS/MS analysis; assay type: ADME, organism-based; conditions: in vivo
[9] = AUC in male CD-1 mouse at 10 mg/kg, po measured after 24 hrs by LC-MS/MS analysis; assay type: ADME, organism-based; conditions: in vivo
[10] = Elimination rate constant in male CD-1 mouse at 10 mg/kg, po measured after 24 hrs by LC-MS/MS analysis; assay type: ADME, organism-based; conditions: in vivo
[11] = Therapeutic index, ratio of IC50 for human MCF-10A cells to IC50 for human DLD-1 cells expressing KRAS G13D mutant; assay type: toxicity; conditions: MCF-10A cells versus DLD-1 cells expressing KRAS G13D mutant, read-out: Ratio IC50
[12] = Toxicity in female BALB/c nude mouse xenografted with human MIA PaCa-2 cells assessed as animal death at 50 mg/kg, po administered twice daily for 21 days; assay type: organism-based; conditions: in vivo, 504 h, time 21 day
[13] = tested on: MIA PaCa-2; test: Antitumor activity against human MIA PaCa-2 cells xenografted in female BALB/c nude mouse assessed as tumor growth inhibition at 50 mg/kg, po administered twice daily for 21 days relative to control; assay type: functional; conditions: MIA PaCa-2, 504 h, time 21 day, read-out: TGI
[14] = Toxicity in female BALB/c nude mouse xenografted with human MIA PaCa-2 cells assessed as body weight loss at 50 mg/kg, po administered twice daily for 21 days; assay type: organism-based; conditions: in vivo, 504 h, time 21 day
[15] = tested on: DLD-1; test: Antiproliferative activity against human DLD-1 cells expressing KRAS G13D mutant assessed as inhibition of cell proliferation; assay type: functional, cell-based
[16] = tested on: NCI-H441; test: Antiproliferative activity against human NCI-H441 cells expressing KRAS G12V mutant assessed as inhibition of cell proliferation; assay type: functional, cell-based
[17] = tested on: NCI-H358; test: Antiproliferative activity against human NCI-H358 cells expressing KRAS G12C mutant assessed as inhibition of cell proliferation; assay type: functional, cell-based
[18] = Therapeutic index, ratio of IC50 for human MCF-10A cells to IC50 for human MIA PaCa-2 cells expressing KRAS G12C mutant; assay type: toxicity; conditions: read-out: Ratio IC50
[19] = tested on: Mus musculus; test: In vivo inhibition of AKT phosphorylation in female BALB/c nude mouse xenografted with human MIA PaCa-2 cells assessed as effect on phosphorylated AKT level in tumor at 50 mg/kg, po administered twice daily for 21 days; assay type: functional, organism-based; conditions: time 21.0 day
[20] = Therapeutic index, ratio of IC50 for human MCF-10A cells to IC50 for human NCI-H441 cells expressing KRAS G12V mutant; assay type: toxicity; conditions: read-out: Ratio IC50
[21] = tested on: Mus musculus; test: In vivo inhibition of ERK phosphorylation in female BALB/c nude mouse xenografted with human MIA PaCa-2 cells assessed as effect on phosphorylated ERK level in tumor at 50 mg/kg, po administered twice daily for 21 days; assay type: functional, organism-based; conditions: time 21.0 day
[22] = Cytotoxicity against human MCF-10A cells assessed as inhibition of cell proliferation
[23] = tested on: NCI-H520; test: Antiproliferative activity against human NCI-H520 cells expressing wildtype KRAS assessed as inhibition of cell proliferation; assay type: functional, cell-based
[24] = Therapeutic index, ratio of IC50 for human MCF-10A cells to IC50 for human NCI-H358 cells expressing KRAS G12C mutant; assay type: toxicity; conditions: read-out: Ratio IC50

SMILES | IC50 [1] [nM] | IC50 [2] [nM] | Imax [3] [%] | IC50 [4] [nM] | MRT [5] [h] | Cmax [6] [ng/mL] | Tmax [7] [h] | half-life [8] [h] | AUC at 24 h [9] [ng·h/mL] | k el at 24 h [10] [s⁻¹] | other results
Cc1nc(N[C@H](C)c2cccc(C(F)F)c2F)c2cc3c(cc2n1)OCCN3C(=O)C1CN(C)C1 | 94 | 1530 | 67 | 330 |  |  |  |  |  |  | 
Cc1nc(N[C@H](C)c2cccc(C(F)F)c2F)c2cc3c(cc2n1)OCCN3C(=O)N1CCN(C)CC1 | 24 | 660 | 79 | 97 |  |  |  |  |  |  | 
C=C(F)C(=O)N1CCN(c2nc(OC[C@@H]3CCCN3C)nc3c2CCN(c2cccc4cccc(Cl)c24)C3)C[C@@H]1CC#N [ADAGRASIB] |  | 250 | 89 |  |  |  |  |  |  |  | 
Cc1nc(N[C@H](C)c2cccc(C(F)F)c2F)c2cc3c(cc2n1)OCCN3C(=O)C1CCOCC1 | 19 | 1320 | 76 | 71 |  |  |  |  |  |  | 
Cc1nc(N[C@H](C)c2cccc(C(F)F)c2F)c2cc3c(cc2n1)OCCN3C(=O)C1CCN(C)CC1 | 5.6 | 140 | 82 | 21 | 2.11 | 650 | 0.5 | 1.72 | 1920 | 0.000111 | 
Cc1nc(N[C@H](C)c2cccc(C(F)F)c2F)c2cc3c(cc2n1)OCCN3C(=O)C1CCN(C(C)C)CC1 | 5.1 | 110 | 86 | 18 | 2.83 | 790 | 1.08 | 1.65 | 2910 | 0.000117 | selectivity ratio [11]: > 400; Activity [12]: Non-toxic; inhibition in vivo at 50 mg/kg [13]: 70.5%; Activity [14]: Non-toxic; IC50 [15]: 70 nM; IC50 [16]: 120 nM; IC50 [17]: 70 nM; selectivity ratio [18]: > 400; inhibition [19]: Active; selectivity ratio [20]: > 400; inhibition [21]: Active; IC50 [22]: 44600 nM; IC50 [23]: 2880 nM; selectivity ratio [24]: > 400
COc1cc2nc(C)nc(N[C@H](C)c3cc(N)cc(C(F)(F)F)c3)c2cc1O[C@H]1CCOC1 |  | 150 | 85 | 30 | 2.44 | 870 | 0.33 | 1.67 | 2300 | 0.000119 | inhibition in vivo at 50 mg/kg [13]: 56.3%; IC50 [15]: 100 nM; IC50 [16]: 160 nM; IC50 [17]: 120 nM; inhibition [19]: Active; inhibition [21]: Active; IC50 [23]: 2630 nM
Cc1nc(N[C@H](C)c2cccc(C(F)F)c2F)c2cc3c(cc2n1)OCCN3C(=O)N1CCN(C)C[C@@H]1C | 481 | > 10000 | 26 | > 3000 |  |  |  |  |  |  | 
